Like-named read-outs stand apart in the source and are kept apart here.
Columns and labels:
[1] = Metabolic stability in rat liver microsomes; format: in vitro ADME; conditions: 5 μM
Protocol: (§1) The incubation mixture containing 0.25 mg of rat or human liver microsomes was preincubated with an NADPH-generating system for 5 min at 37°C. The reaction was started by the addition of 5 μL of a DMSO solution containing the test compound (5 μM). At t = 0 and at two additional time points between 0 and 30 min, aliquots (100 μL) were removed and added to termination mixtures (CH3CN). Proteins were sedimented by centrifugation and an aliquot of the supernatant was analyzed by LC/MS/MS.
(§2) In determinations of the in vitrot1/2, the analyte/ISTD peak area ratio was converted to percentage of drug remaining by assigning a value of 100% to the peak area ratio at t = 0. The slope of the regression line fitted to the log (percentage remaining) versus incubation time relationship (-k) was used in the conversion of raw data to the in vitrot1/2 value. In vitro CLint was calculated using the following formula.
(§3) CLint=0.693/Invitro t1/2×mL incubation/mg microsomes×45 mg microsomes/mg liver×[…] (b.w.)

[2] = Metabolic stability in human liver microsomes; format: in vitro ADME; conditions: read-out: CL'int Human (converted)
Protocol: as §1, §2, §3

[3] = test system: CYP1A; test: CYP1A enzyme induction in rat hepatocytes (7-ethoxyresorufin O-dealkylation); format: in vitro ADME; conditions: rat hepatocytes, 1, 10, 50 μM, 2 days
Protocol: (§4) Enzyme induction was evaluated as follows: Hepatocytes isolated from male SD rats were maintained in culture for 1 day before treatment with the test compound or P-450 inducers. The cells were treated with the test compound (1, 10, 50 μM), β-naphthoflavone (10 μM, CYP1A inducer), phenobarbital (50 μM, CYP2B inducer), dexamethasone (10 μM, CYP3A inducer), or vehicle (0.1% DMSO final volume; used as negative control) for 2 days.
(§5) Induction of CYP1A, CYP2B, and CYP3A enzymes was determined based on measurements of 7-ethoxyresorufin O-dealkylation, 7-pentoxyresorufin O-dealkylation, and testosterone 6β-hydroxylation, respectively. Assays were started by the addition of Krebs-Henseleit buffer containing 8 μM 7-ethoxyresorufin, 10 μM 7-pentoxyresorufin, or 250 μM testosterone at a volume of 100 μL per well. After incubation at 37°C for 30 min, aliquots were removed and analyzed by fluorometry (an excitation wavelength of 538 nm and an emission wavelength of 590 nm) or LC/MS/MS to determine the quantities of metabolites formed. Any test compound causing a dose-dependent change equal to or greater than 10% of the positive control (see formula below) was considered an enzyme inducer.
(§6) % positive control=(activity of test - compound treated cells - activity of negative control)/(activity of positive control - activity of negative control)×100

[4] = test system: CYP2B; test: CYP2B enzyme induction in rat hepatocytes (7-pentoxyresorufin O-dealkylation); format: in vitro ADME; conditions: rat hepatocytes, 1, 10, 50 μM, 2 days
Protocol: as §4, §5, §6

[5] = test system: CYP3A; test: CYP3A enzyme induction in rat hepatocytes (testosterone 6β-hydroxylation); format: in vitro ADME; conditions: rat hepatocytes, 1, 10, 50 μM, 2 days
Protocol: as §4, §5, §6

[6] = target: Human DPP-9 (Homo sapiens, UniProt Q86TI2); test: In vitro assay for inhibition of DPP-9
[7] = Pharmacokinetics (PK) in SD rats; format: in vivo, Sprague-Dawley (SD) rats; conditions: for AUC(0-t): read-out: AUC 0-9 h
Protocol: Sprague-Dawley (SD) rats were housed under standard conditions and allowed free access to water and a commercial diet. On the day before the experiment, rats were fasted overnight and for the first 12 h of the experiment. […] Blood samples were collected from the jugular vein of each animal with a heparinized syringe under diethyl ether anesthesia at serial time points for 24 h after drug administration. Plasma was obtained by centrifugation at 4°C and stored at -70°C until analysis. Protein precipitation was carried out by the addition of the internal standard solution (70% CH3CN with 0.2% acetic acid) to samples. The tubes underwent vigorous shaking and centrifugation for 5 min; then the supernatant was subjected to LC/MS/MS analysis. Peak areas were determined using Xcalibur® software (Thermo Electron Corporation, UK) and AUC values were calculated by the trapezoidal rule.

[8] = target: T1, plasma DPP-IV (Rattus norvegicus, UniProt P14740); test: Inhibition of rat plasma DPP-IV ex vivo during OGTT; format: in vivo, Wistar/ST rats; conditions: for inhibition at 1 mg/kg: 1 mg/kg oral
T1 construct: from tissue; host or cells: plasma of Wistar/ST rats
Protocol: After 30 min (t = 0), oral glucose challenges (1 g/kg) were conducted and then plasma DPP-IV activities and blood glucose levels were monitored at various intervals over a 2 h period. […].
(§7) All procedures were approved by the Sanwa Kagaku Kenkyusho Institutional Animal Care and Use Committee. 7-week old Wistar/ST rats were housed under standard conditions and allowed free access to water and a commercial diet for at least 5 days. […] After an oral glucose challenge (5 mL/kg of an aqueous solution of 20% glucose), blood samples were collected from the tail vein of each animal into heparin-containing tubes at serial time points for 2 h. Plasma was prepared immediately, frozen, and stored at -20°C prior to analysis.
Plasma DPP-IV activity was determined as described above. A 20 μL plasma sample was mixed with 5 μL of reaction buffer (140 mM NaCl, and 10 mM KCl, 25 mM Tris-HCl, pH 7.4, 1% bovine serum albumin) and 10 μL of buffer containing 60 μM H-Gly-Pro-AMC. After incubation at room temperature for 30 min, the reaction was stopped by the addition of 20 μL of 25% aqueous acetic acid and fluorescence was measured using an excitation wavelength of 360 nm and an emission wavelength of 460 nm.

[9] = test system: blood glucose; test: Oral glucose tolerance test (OGTT), blood glucose; format: in vivo; conditions: Wistar/ST rats, 1 mg/kg oral, glucose challenge 1 g/kg
Protocol: (§8) After 30 min (t = 0), oral glucose challenges (1 g/kg) were conducted and then plasma DPP-IV activities and blood glucose levels were monitored at various intervals over a 2 h period.
as §7
(§9) Plasma glucose and insulin were determined with a glucometer (Glutest Pro; SKK, Japan) and a rat insulin ELISA kit (Shibayagi, Japan), respectively, according to the manufacturer's instructions. Statistical analyses were performed using Microsoft Excel. Individual comparisons among more than two experimental groups were assessed using ANOVA, with Fisher's Least Significant Difference post hoc test. Differences were considered significant at P values < 0.05. Analysis of dose-response data was performed by Dunnett's test.

[10] = test system: plasma insulin; test: Plasma insulin after glucose challenge in OGTT; format: in vivo; conditions: Wistar/ST rats, oral 4b, 10 min after glucose challenge
Protocol: as §8, §7, §9

[11] = target: Human DPP-8 (Homo sapiens, UniProt Q6V1X1); test: In vitro assay for inhibition of DPP-8
[12] = target: Human recombinant DPP-IV (Homo sapiens, UniProt P27487); test: In vitro assay for DPP-IV inhibition (H-Gly-Pro-AMC fluorescence)
[13] = target: T2, human plasma DPP-IV (Homo sapiens, UniProt P27487); test: IC50 with respect to human plasma DPP-IV (separate experiments); format: biochemical; conditions: separate experiments (footnote a)
T2 construct: from tissue; host or cells: human plasma
Description: Table 1 Inhibition of DPP-IV, -8 and -9 activity by 1,3-dihydroisoindoline derivatives 4, their metabolic clearance by rat and human and their enzyme-inducing (CYP1A, CYP2B, and CYP3A) capacity | column: IC50 (nM) / DPP-IV

[14] = Further PK studies: metabolite identification by LC-MS, in vivo conversion of 4b into 4l; conditions: rats, after dosing of 4b
Protocol: Therefore, further PK studies were conducted. A major metabolite was detected by LC-MS analysis and its structure was determined by comparison of the LC retention time and MS/MS fragmentation pattern with synthetic standards.

[15] = Sprague-Dawley, rat, plasma, po 3 mg/kg
[16] = Sprague-Dawley, rat, plasma, po 10 mg/kg

Human DPP-9, sequence (Q86TI2 whole entry): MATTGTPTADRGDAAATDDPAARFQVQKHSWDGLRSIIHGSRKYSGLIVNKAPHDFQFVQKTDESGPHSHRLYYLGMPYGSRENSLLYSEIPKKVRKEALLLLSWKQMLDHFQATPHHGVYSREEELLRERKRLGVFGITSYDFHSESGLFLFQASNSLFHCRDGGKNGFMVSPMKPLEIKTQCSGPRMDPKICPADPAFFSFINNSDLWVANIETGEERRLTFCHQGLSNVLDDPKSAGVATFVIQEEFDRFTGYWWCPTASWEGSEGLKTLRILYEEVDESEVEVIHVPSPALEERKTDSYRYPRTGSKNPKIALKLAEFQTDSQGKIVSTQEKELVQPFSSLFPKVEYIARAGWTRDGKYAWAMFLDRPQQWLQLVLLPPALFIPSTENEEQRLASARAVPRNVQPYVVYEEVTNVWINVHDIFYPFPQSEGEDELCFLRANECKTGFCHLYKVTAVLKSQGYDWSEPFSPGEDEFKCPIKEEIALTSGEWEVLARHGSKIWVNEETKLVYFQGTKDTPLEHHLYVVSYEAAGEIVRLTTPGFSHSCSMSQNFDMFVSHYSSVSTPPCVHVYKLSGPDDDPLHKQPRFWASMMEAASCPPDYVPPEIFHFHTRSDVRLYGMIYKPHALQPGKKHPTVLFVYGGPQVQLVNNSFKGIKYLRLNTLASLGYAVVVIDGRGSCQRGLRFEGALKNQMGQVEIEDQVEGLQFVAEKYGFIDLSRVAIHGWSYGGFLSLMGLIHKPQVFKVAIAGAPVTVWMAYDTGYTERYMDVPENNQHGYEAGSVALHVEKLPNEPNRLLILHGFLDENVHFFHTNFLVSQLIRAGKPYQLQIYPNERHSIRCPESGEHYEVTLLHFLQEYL
T1 sequence (P14740 37-767 limits assumed): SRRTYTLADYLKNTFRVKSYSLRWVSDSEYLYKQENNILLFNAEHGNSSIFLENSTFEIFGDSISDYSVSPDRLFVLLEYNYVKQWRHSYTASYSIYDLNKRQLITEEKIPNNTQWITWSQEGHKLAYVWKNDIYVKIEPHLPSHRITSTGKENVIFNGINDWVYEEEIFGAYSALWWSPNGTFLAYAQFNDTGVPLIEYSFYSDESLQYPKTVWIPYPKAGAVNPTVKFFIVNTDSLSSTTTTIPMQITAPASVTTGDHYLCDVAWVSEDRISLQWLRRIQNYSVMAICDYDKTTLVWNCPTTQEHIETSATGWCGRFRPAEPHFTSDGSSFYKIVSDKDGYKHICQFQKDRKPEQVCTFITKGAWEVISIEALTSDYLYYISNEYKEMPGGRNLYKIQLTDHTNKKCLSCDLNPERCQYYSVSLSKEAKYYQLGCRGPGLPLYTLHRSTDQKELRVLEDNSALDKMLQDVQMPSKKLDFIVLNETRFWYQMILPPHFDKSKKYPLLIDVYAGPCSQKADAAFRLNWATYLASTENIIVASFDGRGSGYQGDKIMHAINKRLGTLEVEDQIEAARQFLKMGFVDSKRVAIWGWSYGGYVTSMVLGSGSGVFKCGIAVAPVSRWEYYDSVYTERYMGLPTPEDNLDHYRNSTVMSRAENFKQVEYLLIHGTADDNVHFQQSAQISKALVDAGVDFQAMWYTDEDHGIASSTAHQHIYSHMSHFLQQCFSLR
Human DPP-8, sequence (Q6V1X1 whole entry): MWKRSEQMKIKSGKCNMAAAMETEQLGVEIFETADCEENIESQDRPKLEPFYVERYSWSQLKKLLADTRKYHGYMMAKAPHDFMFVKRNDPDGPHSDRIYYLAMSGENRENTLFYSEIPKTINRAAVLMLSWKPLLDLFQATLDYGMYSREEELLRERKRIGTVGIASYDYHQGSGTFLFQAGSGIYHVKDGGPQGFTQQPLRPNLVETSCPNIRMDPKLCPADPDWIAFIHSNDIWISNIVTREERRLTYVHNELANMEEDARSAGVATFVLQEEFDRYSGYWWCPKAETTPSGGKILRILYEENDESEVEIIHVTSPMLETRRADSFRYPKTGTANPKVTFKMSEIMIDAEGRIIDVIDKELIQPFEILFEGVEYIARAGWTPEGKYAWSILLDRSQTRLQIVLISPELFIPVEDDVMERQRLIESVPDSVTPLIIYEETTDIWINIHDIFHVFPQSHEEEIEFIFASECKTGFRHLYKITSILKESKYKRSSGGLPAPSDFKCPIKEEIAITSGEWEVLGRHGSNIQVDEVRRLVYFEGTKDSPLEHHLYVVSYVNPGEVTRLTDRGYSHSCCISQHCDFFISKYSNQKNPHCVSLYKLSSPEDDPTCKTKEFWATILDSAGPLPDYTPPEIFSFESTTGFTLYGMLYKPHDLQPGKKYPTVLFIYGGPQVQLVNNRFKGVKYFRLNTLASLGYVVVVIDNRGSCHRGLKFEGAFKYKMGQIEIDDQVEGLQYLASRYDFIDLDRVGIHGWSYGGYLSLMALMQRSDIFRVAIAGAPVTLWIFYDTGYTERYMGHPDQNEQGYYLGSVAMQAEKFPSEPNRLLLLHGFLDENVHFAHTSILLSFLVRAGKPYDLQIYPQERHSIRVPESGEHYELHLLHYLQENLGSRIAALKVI
Human recombinant DPP-IV, sequence (P27487 whole entry): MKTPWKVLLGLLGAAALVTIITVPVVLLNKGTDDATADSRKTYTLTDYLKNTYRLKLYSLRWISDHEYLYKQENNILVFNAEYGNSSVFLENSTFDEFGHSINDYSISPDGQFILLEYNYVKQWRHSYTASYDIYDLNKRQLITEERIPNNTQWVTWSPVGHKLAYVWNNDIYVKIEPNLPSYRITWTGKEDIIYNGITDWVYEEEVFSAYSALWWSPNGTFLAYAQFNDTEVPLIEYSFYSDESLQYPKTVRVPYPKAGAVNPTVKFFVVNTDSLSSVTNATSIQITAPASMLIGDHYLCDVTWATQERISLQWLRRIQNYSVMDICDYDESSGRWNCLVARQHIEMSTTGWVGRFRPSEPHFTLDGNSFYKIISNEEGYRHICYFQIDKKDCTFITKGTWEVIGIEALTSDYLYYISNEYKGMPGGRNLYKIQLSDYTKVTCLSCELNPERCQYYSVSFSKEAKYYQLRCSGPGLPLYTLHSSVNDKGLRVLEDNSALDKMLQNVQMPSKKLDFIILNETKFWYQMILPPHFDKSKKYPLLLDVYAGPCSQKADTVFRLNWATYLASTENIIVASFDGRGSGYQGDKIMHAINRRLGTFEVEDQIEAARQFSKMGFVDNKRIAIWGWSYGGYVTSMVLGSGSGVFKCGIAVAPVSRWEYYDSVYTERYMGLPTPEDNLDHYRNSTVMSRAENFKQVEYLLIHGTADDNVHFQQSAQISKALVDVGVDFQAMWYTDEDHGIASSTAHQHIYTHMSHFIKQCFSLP
T2 sequence (P27487 39-766 limits assumed): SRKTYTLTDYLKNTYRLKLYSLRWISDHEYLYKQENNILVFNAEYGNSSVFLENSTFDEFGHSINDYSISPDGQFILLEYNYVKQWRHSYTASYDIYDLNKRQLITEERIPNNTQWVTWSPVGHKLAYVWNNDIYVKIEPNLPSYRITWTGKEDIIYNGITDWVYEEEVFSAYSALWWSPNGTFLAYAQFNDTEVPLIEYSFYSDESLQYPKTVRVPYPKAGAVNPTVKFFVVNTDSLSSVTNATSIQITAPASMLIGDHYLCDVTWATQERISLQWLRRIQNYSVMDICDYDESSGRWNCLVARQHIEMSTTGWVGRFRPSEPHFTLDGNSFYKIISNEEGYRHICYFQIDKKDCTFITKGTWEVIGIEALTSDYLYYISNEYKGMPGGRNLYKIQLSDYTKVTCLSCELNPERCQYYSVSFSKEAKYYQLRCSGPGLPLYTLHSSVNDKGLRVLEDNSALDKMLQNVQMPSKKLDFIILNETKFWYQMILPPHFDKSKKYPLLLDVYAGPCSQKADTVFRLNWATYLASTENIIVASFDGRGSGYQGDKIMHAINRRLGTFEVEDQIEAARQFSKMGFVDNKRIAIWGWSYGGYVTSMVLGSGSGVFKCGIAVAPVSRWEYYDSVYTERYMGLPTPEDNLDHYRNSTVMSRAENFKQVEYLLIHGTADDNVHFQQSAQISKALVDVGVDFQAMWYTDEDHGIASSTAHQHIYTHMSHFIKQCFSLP

CC(C)(CC(=O)N1Cc2ccccc2C1)NCC(=O)N1CCC[C@H]1C#N [Compound 4a, (S)-1-(2-(4-(Isoindolin-2-yl)-2-methyl-4-oxobutan-2-ylamino)acetyl)pyrrolidine-2-carbonitrile]
CL'int Rat [1]: 21.7 mL/min/kg
CLint scaled at 5 μM [2]: 3.33 mL/min/kg
Enzyme induction (rat) CYP1A [3]: + (Any test compound causing a dose-dependent change equal to or greater than 10% of the positive control (see formula below) was considered an enzyme inducer)
Enzyme induction (rat) CYP2B [4]: + (Any test compound causing a dose-dependent change equal to or greater than 10% of the positive control (see formula below) was considered an enzyme inducer)
Enzyme induction (rat) CYP3A [5]: + (Any test compound causing a dose-dependent change equal to or greater than 10% of the positive control (see formula below) was considered an enzyme inducer)
IC50 [6]: > 100 µM

Cc1ccc2c(c1)CN(C(=O)CC(C)(C)NCC(=O)N1CCC[C@H]1C#N)C2 [Compound 4b, (S)-1-(2-(2-Methyl-4-(5-methylisoindolin-2-yl)-4-oxobutan-2-ylamino)acetyl)pyrrolidine-2-carbonitrile]
CL'int Rat [1]: 38.3 mL/min/kg
CLint scaled at 5 μM [2]: 1.67 mL/min/kg
Enzyme induction (rat) CYP3A [5]: - (Any test compound causing a dose-dependent change equal to or greater than 10% of the positive control (see formula below) was considered an enzyme inducer)
AUC(0-t) ([7]; Sprague-Dawley, rat, plasma, iv 1 mg/kg): 39 ng·h/mL
clearance ([7]; Sprague-Dawley, rat, plasma, iv 1 mg/kg, read-out: CL p (converted)): 437 mL/min/kg
Vd ([7]; Sprague-Dawley, rat, plasma, iv 1 mg/kg, read-out: Vd ss): 8.28 L/kg
Cmax [7, 15]: 37 ng/mL
Tmax [7, 15]: 15 min
AUC(0-t) [7, 15]: 33 ng·h/mL
Cmax [7, 16]: 229 ng/mL
Tmax [7, 16]: 15 min
AUC(0-t) [7, 16]: 156 ng·h/mL
t 1/2α ([7]; iv 1 mg/kg, first t 1/2 column): 3.72 min
t 1/2α ([7]; iv 1 mg/kg, second t 1/2): 16.2 min
BA ([7]; po 3 mg/kg): 27.7%
t 1/2α ([7]; po 3 mg/kg, second t 1/2): 82.2 min
BA ([7]; po 10 mg/kg): 39.9%
t 1/2α ([7]; po 10 mg/kg, second t 1/2): 90 min
inhibition of DPP-IV estimated from the PK profiles ([8]; 3-10 mg/kg doses, for several hours, estimated from the PK profiles): > 50%
inhibition at 0.1 mg/kg ([8]; rat, Wistar/ST rats, 0.1 mg/kg oral): 30%
inhibition at 1 mg/kg ([8]; rat, Wistar/ST rats, over 2 h period after glucose challenge, read-out: inhibition of plasma DPP-IV activity maintained throughout the study): > 90%
inhibition at 1 mg/kg ([8]; rat, Wistar/ST rats, within 30 min post-dose, read-out: inhibition of plasma DPP-IV activity): 95%
reduction of glucose levels in OGTT [9]: 18%
insulin levels at 10 min post-challenge [10]: increased

CC(C)(CC(=O)N1Cc2ccc(F)cc2C1)NCC(=O)N1CCC[C@H]1C#N [Compound 4c, (S)-1-(2-(4-(5-Fluoroisoindolin-2-yl)-2-methyl-4-oxobutan-2-ylamino)acetyl)pyrrolidine-2-carbonitrile]
CL'int Rat [1]: 43.3 mL/min/kg
CLint scaled at 5 μM [2]: 80 mL/min/kg
Enzyme induction (rat) CYP2B [4]: + (Any test compound causing a dose-dependent change equal to or greater than 10% of the positive control (see formula below) was considered an enzyme inducer)
IC50 [11]: > 100 µM
IC50 [6]: > 100 µM
IC50 [12]: 0.0019 µM

CC(C)(CC(=O)N1Cc2cc(Cl)c(Cl)cc2C1)NCC(=O)N1CCC[C@H]1C#N [Compound 4j, (S)-1-(2-(4-(5,6-Dichloroisoindolin-2-yl)-2-methyl-4-oxobutan-2-ylamino)acetyl)pyrrolidine-2-carbonitrile]
Enzyme induction (rat) CYP1A [3]: + (Any test compound causing a dose-dependent change equal to or greater than 10% of the positive control (see formula below) was considered an enzyme inducer)
Enzyme induction (rat) CYP2B [4]: + (Any test compound causing a dose-dependent change equal to or greater than 10% of the positive control (see formula below) was considered an enzyme inducer)
IC50 [11]: > 100 µM
IC50 [6]: 74 µM
IC50 [12]: 0.022 µM

CC(C)(CC(=O)N1Cc2ccc(CO)cc2C1)NCC(=O)N1CCC[C@H]1C#N [Compound 4l, (S)-1-(2-(4-(5-(Hydroxymethyl)isoindolin-2-yl)-2-methyl-4-oxobutan-2-ylamino)acetyl)pyrrolidine-2-carbonitrile]
IC50 [13]: 0.0019 µM
in vivo conversion (of 4b into metabolite 4l) [14]: 60%
